Results published in ChEMBL document CHEMBL5058649, “Data for DCP probe BAY 1816032” (2022).

Tests used:
[1] = target: 5-hydroxytryptamine receptor 7 (Homo sapiens, UniProt P34969); experiment: GPCRScan assay: inhibition of 5-HT7A; design: radioligand conc. used [nm] 5.0 – 6.0, parental cells Stable HEK
[2] = target: Acetylcholine receptor subunit alpha (Homo sapiens) (UniProt P02708); experiment: Inhibition of Nicotinic Acetylcholine D1, Bungarotoxin at 10 µM in the Eurofins-Panlabs radioligand binding assay (Eurofins_assay_258700); settings: Compound concentration 10.0 uM
Rattus norvegicus = species on record: Rattus norvegicus; experiment: Glutamate, NMDA, Polyamine Eurofins-Panlabs radioligand binding assay; type: protein-complex assay; design: ligand concentration 2 nM; settings: Compound concentration 10.0 uM
[3] = target: Tyrosine-protein kinase receptor UFO (Homo sapiens) (UniProt P30530); experiment: AXL DiscoveRx kinase panel; settings: Compound concentration 1.0 uM
[4] = target: Microtubule-associated serine/threonine-protein kinase 1 (Homo sapiens) (UniProt Q9Y2H9); experiment: MAST1 DiscoveRx kinase panel; settings: Compound concentration 1.0 uM
[5] = target: Serine/threonine-protein kinase WNK4 (Homo sapiens) (UniProt Q96J92); experiment: WNK4 DiscoveRx kinase panel; settings: Compound concentration 1.0 uM
[6] = target: Calcium/calmodulin-dependent protein kinase type IV (Homo sapiens) (UniProt Q16566); experiment: CAMK4 DiscoveRx kinase panel; settings: Compound concentration 1.0 uM
[7] = target: Casein kinase I isoform delta (Homo sapiens) (UniProt P48730); experiment: CSNK1D DiscoveRx kinase panel; settings: Compound concentration 1.0 uM
[8] = target: Myosin light chain kinase 2, skeletal/cardiac muscle (Homo sapiens) (UniProt Q9H1R3); experiment: MYLK2 DiscoveRx kinase panel; settings: Compound concentration 1.0 uM
[9] = target: Receptor tyrosine-protein kinase erbB-3 (Homo sapiens) (UniProt P21860); experiment: ERBB3 DiscoveRx kinase panel; settings: Compound concentration 1.0 uM
[10] = target: Dual specificity mitogen-activated protein kinase kinase 5 (Homo sapiens) (UniProt Q13163); experiment: MEK5 DiscoveRx kinase panel; settings: Compound concentration 1.0 uM
[11] = target: RAF proto-oncogene serine/threonine-protein kinase (Homo sapiens) (UniProt P04049); experiment: RAF1 DiscoveRx kinase panel; settings: Compound concentration 1.0 uM
[12] = target: Serine/threonine-protein kinase Nek7 (Homo sapiens) (UniProt Q8TDX7); experiment: NEK7 DiscoveRx kinase panel; settings: Compound concentration 1.0 uM
[13] = target: Serine/threonine-protein kinase PAK 6 (Homo sapiens) (UniProt Q9NQU5); experiment: PAK6 DiscoveRx kinase panel; settings: Compound concentration 1.0 uM
[14] = target: Ribosomal protein S6 kinase alpha-1 (Homo sapiens) (UniProt Q15418); experiment: RSK1(Kin.Dom.1-N-terminal) DiscoveRx kinase panel; settings: Compound concentration 1.0 uM
[15] = target: Transient receptor potential cation channel subfamily M member 6 (Homo sapiens) (UniProt Q9BX84); experiment: TRPM6 DiscoveRx kinase panel; settings: Compound concentration 1.0 uM
[16] = target: Tyrosine-protein kinase Mer (Homo sapiens) (UniProt Q12866); experiment: MERTK DiscoveRx kinase panel; settings: Compound concentration 1.0 uM
[17] = target: Mitogen-activated protein kinase 12 (Homo sapiens) (UniProt P53778); experiment: p38-gamma DiscoveRx kinase panel; settings: Compound concentration 1.0 uM
[18] = target: Eukaryotic translation initiation factor 2-alpha kinase 1 (Homo sapiens) (UniProt Q9BQI3); experiment: EIF2AK1 DiscoveRx kinase panel; settings: Compound concentration 1.0 uM
[19] = target: Cyclin-dependent kinase 14 (Homo sapiens) (UniProt O94921); experiment: PFTK1 DiscoveRx kinase panel; settings: Compound concentration 1.0 uM
[20] = target: Focal adhesion kinase 1 (Homo sapiens) (UniProt Q05397); experiment: FAK DiscoveRx kinase panel; settings: Compound concentration 1.0 uM
[21] = target: Serine/threonine-protein kinase RIO3 (Homo sapiens) (UniProt O14730); experiment: RIOK3 DiscoveRx kinase panel; settings: Compound concentration 1.0 uM
[22] = target: Serine/threonine-protein kinase ULK1 (Homo sapiens) (UniProt O75385); experiment: ULK1 DiscoveRx kinase panel; settings: Compound concentration 1.0 uM
[23] = target: NUAK family SNF1-like kinase 1 (Homo sapiens) (UniProt O60285); experiment: ARK5 DiscoveRx kinase panel; settings: Compound concentration 1.0 uM
[24] = target: Ephrin type-B receptor 3 (Homo sapiens) (UniProt P54753); experiment: EPHB3 DiscoveRx kinase panel; settings: Compound concentration 1.0 uM
[25] = target: Insulin receptor (Homo sapiens) (UniProt P06213); experiment: INSR DiscoveRx kinase panel; settings: Compound concentration 1.0 uM
[26] = target: Activin receptor type-1 (Homo sapiens) (UniProt Q04771); experiment: ACVR1 DiscoveRx kinase panel; settings: Compound concentration 1.0 uM
[27] = target: Atypical kinase COQ8A, mitochondrial (Homo sapiens) (UniProt Q8NI60); experiment: ADCK3 DiscoveRx kinase panel; settings: Compound concentration 1.0 uM
[28] = target: Fibroblast growth factor receptor 4 (Homo sapiens) (UniProt P22455); experiment: FGFR4 DiscoveRx kinase panel; settings: Compound concentration 1.0 uM
[29] = target: Phosphatidylinositol 3-kinase C2 domain-containing subunit gamma (Homo sapiens) (UniProt O75747); experiment: PIK3C2G DiscoveRx kinase panel; settings: Compound concentration 1.0 uM
[30] = target: Hormonally up-regulated neu tumor-associated kinase (Homo sapiens) (UniProt P57058); experiment: HUNK DiscoveRx kinase panel; settings: Compound concentration 1.0 uM
[31] = target: Serine/threonine-protein kinase Nek4 (Homo sapiens) (UniProt P51957); experiment: NEK4 DiscoveRx kinase panel; settings: Compound concentration 1.0 uM
[32] = target: Serine/threonine-protein kinase 35 (Homo sapiens) (UniProt Q8TDR2); experiment: STK35 DiscoveRx kinase panel; settings: Compound concentration 1.0 uM
[33] = target: Aurora kinase A (Homo sapiens) (UniProt O14965); experiment: AURKA DiscoveRx kinase panel; settings: Compound concentration 1.0 uM
[34] = target: Dual specificity tyrosine-phosphorylation-regulated kinase 2 (Homo sapiens) (UniProt Q92630); experiment: DYRK2 DiscoveRx kinase panel; settings: Compound concentration 1.0 uM
[35] = target: Receptor tyrosine-protein kinase erbB-2 (Homo sapiens) (UniProt P04626); experiment: ERBB2 DiscoveRx kinase panel; settings: Compound concentration 1.0 uM
[36] = target: Mitogen-activated protein kinase 15 (Homo sapiens) (UniProt Q8TD08); experiment: ERK8 DiscoveRx kinase panel; settings: Compound concentration 1.0 uM
[37] = target: Fibroblast growth factor receptor 3 (Homo sapiens) (UniProt P22607); experiment: FGFR3 DiscoveRx kinase panel; settings: Compound concentration 1.0 uM
[38] = target: Dual specificity mitogen-activated protein kinase kinase 3 (Homo sapiens) (UniProt P46734); experiment: MEK3 DiscoveRx kinase panel; settings: Compound concentration 1.0 uM
[39] = target: Serine/threonine-protein kinase Nek10 (Homo sapiens) (UniProt Q6ZWH5); experiment: NEK10 DiscoveRx kinase panel; settings: Compound concentration 1.0 uM
[40] = target: Serine/threonine-protein kinase PLK3 (Homo sapiens) (UniProt Q9H4B4); experiment: PLK3 DiscoveRx kinase panel; settings: Compound concentration 1.0 uM
[41] = target: STE20-like serine/threonine-protein kinase (Homo sapiens) (UniProt Q9H2G2); experiment: SLK DiscoveRx kinase panel; settings: Compound concentration 1.0 uM
[42] = target: Serine/threonine-protein kinase TAO1 (Homo sapiens) (UniProt Q7L7X3); experiment: TAOK1 DiscoveRx kinase panel; settings: Compound concentration 1.0 uM
[43] = target: TGF-beta receptor type-2 (Homo sapiens) (UniProt P37173); experiment: TGFBR2 DiscoveRx kinase panel; settings: Compound concentration 1.0 uM
SUM149PT = experiment: SUM-149 cell line Proliferation assay; type: functional, Homo sapiens; settings: time 4 day
[44] = HeLa-MaTu-ADR cell line Proliferation assay; type: functional, Homo sapiens; settings: time 4 day
[45] = target: D(3) dopamine receptor (Homo sapiens) (UniProt P35462); settings: Compound concentration 10.0 uM
[46] = target: Beta-2 adrenergic receptor (Homo sapiens) (UniProt P07550); settings: Compound concentration 10.0 uM
[47] = target: Sodium-dependent dopamine transporter (Homo sapiens, UniProt Q01959); settings: Compound concentration 10.0 uM
[48] = target: Cannabinoid receptor 2 (Homo sapiens) (UniProt P34972); settings: Compound concentration 10.0 uM
[49] = target: Androgen receptor (Homo sapiens) (UniProt P10275); settings: Compound concentration 10.0 uM

5-hydroxytryptamine receptor 7, sequence (P34969 whole entry): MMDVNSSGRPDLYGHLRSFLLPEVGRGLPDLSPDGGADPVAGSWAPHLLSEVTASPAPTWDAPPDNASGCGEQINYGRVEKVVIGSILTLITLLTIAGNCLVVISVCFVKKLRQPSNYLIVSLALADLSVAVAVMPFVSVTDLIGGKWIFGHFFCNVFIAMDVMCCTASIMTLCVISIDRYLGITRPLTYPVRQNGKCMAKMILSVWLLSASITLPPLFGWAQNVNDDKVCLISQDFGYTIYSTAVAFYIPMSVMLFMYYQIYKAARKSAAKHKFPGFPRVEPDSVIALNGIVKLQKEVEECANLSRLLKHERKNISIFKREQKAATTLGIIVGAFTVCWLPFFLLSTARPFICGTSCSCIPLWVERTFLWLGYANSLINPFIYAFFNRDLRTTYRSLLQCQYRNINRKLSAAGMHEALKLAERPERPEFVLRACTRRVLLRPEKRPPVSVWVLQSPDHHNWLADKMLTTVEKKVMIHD
Serine/threonine-protein kinase PAK 6 (Homo sapiens), sequence (Q9NQU5 whole entry, looked up): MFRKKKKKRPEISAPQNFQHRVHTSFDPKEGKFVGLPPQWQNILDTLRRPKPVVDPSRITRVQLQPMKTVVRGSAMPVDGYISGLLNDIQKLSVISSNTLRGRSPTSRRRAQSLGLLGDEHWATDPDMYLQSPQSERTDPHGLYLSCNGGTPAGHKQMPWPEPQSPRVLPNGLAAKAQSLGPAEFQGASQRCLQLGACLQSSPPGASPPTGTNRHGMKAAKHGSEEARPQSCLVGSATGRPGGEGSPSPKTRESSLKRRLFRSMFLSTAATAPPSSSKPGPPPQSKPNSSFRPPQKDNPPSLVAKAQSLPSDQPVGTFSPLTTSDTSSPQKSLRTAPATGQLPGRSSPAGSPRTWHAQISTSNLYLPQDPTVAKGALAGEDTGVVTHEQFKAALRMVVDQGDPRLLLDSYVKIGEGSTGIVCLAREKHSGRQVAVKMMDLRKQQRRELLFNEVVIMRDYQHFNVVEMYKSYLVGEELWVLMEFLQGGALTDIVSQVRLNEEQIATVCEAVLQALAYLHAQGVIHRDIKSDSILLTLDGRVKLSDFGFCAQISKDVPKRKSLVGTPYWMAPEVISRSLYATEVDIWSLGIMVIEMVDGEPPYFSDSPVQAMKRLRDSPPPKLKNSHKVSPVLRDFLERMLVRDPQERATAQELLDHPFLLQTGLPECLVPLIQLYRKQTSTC
Hormonally up-regulated neu tumor-associated kinase (Homo sapiens), sequence (P57058 whole entry): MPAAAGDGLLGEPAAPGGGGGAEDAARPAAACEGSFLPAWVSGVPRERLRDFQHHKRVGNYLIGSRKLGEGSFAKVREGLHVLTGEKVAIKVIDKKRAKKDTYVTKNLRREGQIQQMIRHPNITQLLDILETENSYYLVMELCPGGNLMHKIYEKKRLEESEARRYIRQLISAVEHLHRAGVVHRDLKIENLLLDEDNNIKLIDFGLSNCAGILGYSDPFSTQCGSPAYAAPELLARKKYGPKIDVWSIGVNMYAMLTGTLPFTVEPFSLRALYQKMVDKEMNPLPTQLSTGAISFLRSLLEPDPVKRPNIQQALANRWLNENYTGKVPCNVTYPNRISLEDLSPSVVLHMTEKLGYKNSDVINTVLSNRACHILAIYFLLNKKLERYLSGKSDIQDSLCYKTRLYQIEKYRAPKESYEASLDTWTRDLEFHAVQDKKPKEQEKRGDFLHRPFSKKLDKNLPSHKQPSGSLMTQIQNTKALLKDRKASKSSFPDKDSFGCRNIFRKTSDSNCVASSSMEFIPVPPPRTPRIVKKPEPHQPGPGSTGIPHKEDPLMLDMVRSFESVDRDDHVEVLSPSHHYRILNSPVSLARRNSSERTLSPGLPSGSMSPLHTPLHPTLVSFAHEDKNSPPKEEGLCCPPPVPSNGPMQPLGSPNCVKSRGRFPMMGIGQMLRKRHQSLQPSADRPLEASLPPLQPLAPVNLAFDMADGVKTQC
Sodium-dependent dopamine transporter, sequence (Q01959 whole entry): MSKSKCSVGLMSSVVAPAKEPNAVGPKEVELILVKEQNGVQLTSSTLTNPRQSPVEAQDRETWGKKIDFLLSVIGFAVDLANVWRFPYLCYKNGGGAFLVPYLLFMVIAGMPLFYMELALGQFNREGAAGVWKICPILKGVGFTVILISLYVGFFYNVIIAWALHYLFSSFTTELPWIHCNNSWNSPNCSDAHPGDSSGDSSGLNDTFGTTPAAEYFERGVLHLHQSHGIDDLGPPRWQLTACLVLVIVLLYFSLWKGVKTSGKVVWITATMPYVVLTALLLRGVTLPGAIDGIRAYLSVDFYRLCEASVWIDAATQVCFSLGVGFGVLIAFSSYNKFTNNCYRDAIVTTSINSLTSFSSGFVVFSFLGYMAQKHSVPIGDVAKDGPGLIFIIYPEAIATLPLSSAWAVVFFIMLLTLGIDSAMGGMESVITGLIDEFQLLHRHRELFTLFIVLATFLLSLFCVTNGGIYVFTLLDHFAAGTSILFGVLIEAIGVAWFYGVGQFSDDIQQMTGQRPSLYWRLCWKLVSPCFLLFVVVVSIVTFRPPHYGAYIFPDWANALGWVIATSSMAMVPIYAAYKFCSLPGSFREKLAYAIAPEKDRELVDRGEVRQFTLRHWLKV
Transient receptor potential cation channel subfamily M member 6 (Homo sapiens), sequence (Q9BX84 whole entry): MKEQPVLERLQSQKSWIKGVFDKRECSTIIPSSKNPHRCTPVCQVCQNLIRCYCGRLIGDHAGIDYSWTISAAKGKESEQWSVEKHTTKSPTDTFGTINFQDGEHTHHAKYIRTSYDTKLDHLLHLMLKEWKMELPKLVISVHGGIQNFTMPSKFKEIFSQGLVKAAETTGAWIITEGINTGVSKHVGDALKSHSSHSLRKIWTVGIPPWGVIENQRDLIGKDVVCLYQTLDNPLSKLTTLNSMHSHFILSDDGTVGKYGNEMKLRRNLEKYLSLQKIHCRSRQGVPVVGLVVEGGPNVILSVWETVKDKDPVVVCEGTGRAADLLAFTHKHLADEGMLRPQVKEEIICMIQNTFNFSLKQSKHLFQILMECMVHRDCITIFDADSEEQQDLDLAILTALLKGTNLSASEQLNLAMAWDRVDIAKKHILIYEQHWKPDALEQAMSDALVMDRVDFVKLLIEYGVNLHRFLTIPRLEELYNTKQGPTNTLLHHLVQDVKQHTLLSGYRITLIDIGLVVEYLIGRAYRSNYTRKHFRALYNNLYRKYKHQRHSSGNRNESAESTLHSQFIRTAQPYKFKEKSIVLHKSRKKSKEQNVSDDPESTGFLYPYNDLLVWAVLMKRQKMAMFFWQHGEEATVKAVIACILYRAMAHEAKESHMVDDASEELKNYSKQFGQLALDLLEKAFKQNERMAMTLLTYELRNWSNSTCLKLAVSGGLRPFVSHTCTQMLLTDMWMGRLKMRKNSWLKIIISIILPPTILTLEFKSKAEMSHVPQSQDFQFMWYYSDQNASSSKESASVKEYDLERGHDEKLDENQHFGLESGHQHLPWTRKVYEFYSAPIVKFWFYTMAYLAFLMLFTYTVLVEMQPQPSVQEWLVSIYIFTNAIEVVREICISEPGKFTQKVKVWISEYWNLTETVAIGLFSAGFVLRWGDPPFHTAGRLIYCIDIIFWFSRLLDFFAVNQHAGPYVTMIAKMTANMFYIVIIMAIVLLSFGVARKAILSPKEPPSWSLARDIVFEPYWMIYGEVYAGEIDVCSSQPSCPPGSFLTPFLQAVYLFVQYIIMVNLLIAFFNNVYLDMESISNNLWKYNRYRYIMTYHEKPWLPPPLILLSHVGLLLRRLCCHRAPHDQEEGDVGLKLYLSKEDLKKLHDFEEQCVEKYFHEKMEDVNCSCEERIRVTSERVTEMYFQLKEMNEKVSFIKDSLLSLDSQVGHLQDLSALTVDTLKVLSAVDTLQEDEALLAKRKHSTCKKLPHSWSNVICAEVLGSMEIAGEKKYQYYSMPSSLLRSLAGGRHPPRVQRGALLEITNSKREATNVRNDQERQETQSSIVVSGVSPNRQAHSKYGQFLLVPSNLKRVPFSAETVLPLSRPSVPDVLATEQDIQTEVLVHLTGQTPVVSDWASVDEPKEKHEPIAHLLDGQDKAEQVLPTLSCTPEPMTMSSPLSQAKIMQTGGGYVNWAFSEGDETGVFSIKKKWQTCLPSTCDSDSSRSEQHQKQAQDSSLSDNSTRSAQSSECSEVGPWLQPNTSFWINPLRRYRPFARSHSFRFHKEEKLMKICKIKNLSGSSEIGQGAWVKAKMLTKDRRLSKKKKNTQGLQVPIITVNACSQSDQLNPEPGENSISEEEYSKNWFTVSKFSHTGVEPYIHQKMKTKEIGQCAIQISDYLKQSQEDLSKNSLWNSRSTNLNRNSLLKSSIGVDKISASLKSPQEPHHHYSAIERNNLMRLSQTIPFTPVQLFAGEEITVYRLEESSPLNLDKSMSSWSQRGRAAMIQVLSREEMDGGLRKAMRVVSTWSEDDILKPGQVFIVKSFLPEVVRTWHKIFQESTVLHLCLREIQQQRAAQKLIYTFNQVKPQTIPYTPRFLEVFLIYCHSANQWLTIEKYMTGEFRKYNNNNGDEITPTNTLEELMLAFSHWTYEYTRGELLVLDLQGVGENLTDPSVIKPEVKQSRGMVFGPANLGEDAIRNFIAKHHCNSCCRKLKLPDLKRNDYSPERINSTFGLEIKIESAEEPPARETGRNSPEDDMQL
Mitogen-activated protein kinase 12 (Homo sapiens), sequence (P53778 whole entry): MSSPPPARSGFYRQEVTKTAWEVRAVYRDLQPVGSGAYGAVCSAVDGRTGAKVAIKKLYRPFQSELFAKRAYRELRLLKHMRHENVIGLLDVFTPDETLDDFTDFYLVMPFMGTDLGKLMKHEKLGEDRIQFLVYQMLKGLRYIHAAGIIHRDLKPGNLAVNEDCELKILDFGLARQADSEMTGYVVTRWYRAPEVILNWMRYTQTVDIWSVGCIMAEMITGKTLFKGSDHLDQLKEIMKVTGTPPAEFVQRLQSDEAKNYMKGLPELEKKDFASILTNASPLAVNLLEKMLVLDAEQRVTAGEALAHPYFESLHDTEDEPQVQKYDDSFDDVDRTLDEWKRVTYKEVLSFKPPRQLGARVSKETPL

## COc1cnccc1Nc1nc(-c2nn(Cc3c(F)cc(OCCO)cc3F)c3ccccc23)ncc1OC
[1]
  Ki: > 10000 nM
  pKi: < 5
[2]
  inhibition: 14%
Rattus norvegicus
  inhibition: 0%
[3]
  residual activity: 47%
[4]
  residual activity: 63%
[5]
  residual activity: 63%
[6]
  residual activity: 68%
[7]
  residual activity: 68%
[8]
  residual activity: 69%
[9]
  residual activity: 70%
[10]
  residual activity: 71%
[11]
  residual activity: 71%
[12]
  residual activity: 78%
[13]
  residual activity: 79%
[14]
  residual activity: 80%
[15]
  residual activity: 82%
[16]
  residual activity: 83%
[17]
  residual activity: 83%
[18]
  residual activity: 87%
[19]
  residual activity: 87%
[20]
  residual activity: 88%
[21]
  residual activity: 90%
[22]
  residual activity: 90%
[23]
  residual activity: 92%
[24]
  residual activity: 95%
[25]
  residual activity: 97%
[26]
  residual activity: 98%
[27]
  residual activity: 98%
[28]
  residual activity: 98%
[29]
  residual activity: 98%
[30]
  residual activity: 99%
[31]
  residual activity: 99%
[32]
  residual activity: 99%
[33]
  residual activity: 100%
[34]
  residual activity: 100%
[35]
  residual activity: 100%
[36]
  residual activity: 100%
[37]
  residual activity: 100%
[38]
  residual activity: 100%
[39]
  residual activity: 100%
[40]
  residual activity: 100%
[41]
  residual activity: 100%
[42]
  residual activity: 100%
[43]
  residual activity: 100%
SUM149PT
  Cell Proliferation IC50: 640 nM
[44]
  Cell Proliferation IC50: 1100 nM
[45]
  inhibition: 1.89%
[46]
  inhibition: 10%
[47]
  inhibition: -5%
[48]
  inhibition: 31%
[49]
  inhibition: 9%
